Tests used:
HIV-1 PR = HIV-1 PR (Human immunodeficiency virus type 1 group M subtype B, UniProt P04585); assay: HIV-protease inhibitory activity assay (FRET peptide substrate); format: biochemical; conditions: Test Example 1
Method in brief: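 Inhibition of HIV-1 protease was measured as loss of fluorescence dequenching of a HiLyte Fluor 488/QXL 520 peptide at 2 μmol/L, pH 4.8, room temperature, 60 minute reaction. IC50 was derived by nonlinear four-parameter fitting.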

[1] = Protein binding test (equilibrium dialysis, unbound ratio fu in serum); format: in vitro ADME; conditions: rat serum, equilibrium dialysis 24 hours, 37° C., 2 μg/mL
Method: Assay condition: Evaluation method; Equilibrium dialysis method, Reaction time; 24 hours, Reaction temperature; 37° C., Assay concentration; 2 μg/mL A solution of the compound was added to each serum and mixed to prepare the serum samples with above concentration. The serum sample was put into one side of an equilibrium dialysis apparatus with dialysis membrane and phosphate buffered saline (PBS) was also put to another side of the apparatus. The apparatus was incubated at 37° C. for 24 hours. After incubation, the serum and PBS samples were collected and the compound concentrations in both samples were measured by LC/MS/MS. Fu was calculated by dividing the concentration in PBS by the concentration in the serum.

[2] = Evaluation of total body clearance (CLtot), intravenous administration; format: in vivo, Sprague-Dawley (SD); conditions: rat (SD), intravenous administration 0.5-10 mg/kg; CLtot = dose/AUC
Method in brief: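 Plasma levels quantified by LC/MS/MS after intravenous tail-vein dosing (0.5-10 mg/kg, compound-dependent; n=2-3). AUC from pharmacokinetic analysis; total clearance calculated as dose/AUC.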

| SMILES | IC50 (HIV-1 PR) | rat_fu [1] | rat_CLt [2] |
| --- | --- | --- | --- |
| COc1ccc(S(=O)(=O)N(CC(C)C)CC(O)C(Cc2ccc(N(C)Cc3ccccc3-n3nc4c(c3C(=O)O)CC(C)(C)CC4)cc2)NC(=O)OC2COC3(C)OCCC23)cc1 (stereo not drawn) [Compound I-349] | 2.33 nM | <0.1% | 0.0426 L/h/kg |
| COc1ccc(S(=O)(=O)N(CC(C)C)CC(O)C(Cc2ccc(SCc3ccccc3-c3sc4c(c3C(=O)O)CC(C)(C)CC4)cc2)NC(=O)OC2COC3(C)OCCC23)cc1 (stereo not drawn) [Compound I-380] | 5.51 nM | <0.1% | 0.0421 L/h/kg |
| CCN(Cc1ccccc1-c1sc2c(c1C(=O)O)CC(C)(C)CC2)c1ccc(CC(NC(=O)OC2COC3(C)OCCC23)C(O)CN(CC(C)C)S(=O)(=O)c2ccc(OC)cc2)cc1 (stereo not drawn) [Compound I-352] | 4.22 nM | <0.1% | 0.196 L/h/kg |
| COc1ccc(S(=O)(=O)N(CC(C)C)C[C@@H](O)[C@H](Cc2ccc(OCc3ccccc3C(=O)Nc3sc4c(c3C(=O)O)CC(C)(C)CC4)cc2)NC(=O)O[C@H]2CO[C@@]3(C)OCC[C@@H]23)cc1 [Compound I-268] | 4.46 nM | <0.1% | 0.00332 L/h/kg |
| COc1ccc(S(=O)(=O)N(CC(C)C)CC(O)C(Cc2ccc(OCc3ncccc3-c3ccc(-c4sc5c(c4C(=O)O)CC(C)(C)CC5)cc3)cc2)NC(=O)OC2COC3(C)OCCC23)cc1 (stereo not drawn) [Compound I-44] | 1.09 nM | <0.1% | 0.0321 L/h/kg |
| Cc1cc(OCCN(CC(O)C(Cc2ccccc2)NC(=O)OC2COC3(C)OCCC23)S(=O)(=O)c2ccc3ncsc3c2)ccc1-c1sc2c(c1C(=O)O)CC(C)(C)CC2 (stereo not drawn) [Compound I-166] | 8.83 nM | <0.1% | 0.0116 L/h/kg |
| CC(C)CN(CC(O)C(Cc1ccc(CCc2sc3c(c2C(=O)O)CC(C)(C)CC3)cc1)NC(=O)OC1COC2(C)OCCC12)S(=O)(=O)c1ccc(N)cc1 (stereo not drawn) [Compound I-43] | 2 nM | <0.1% | 0.191 L/h/kg |
| COc1ccc(S(=O)(=O)N(CC(C)C)CC(O)C(Cc2ccc(OCc3ncccc3-c3sc4c(c3C(=O)O)CC(C)(C)CC4)cc2)NC(=O)OC2COC3(C)OCCC23)cc1 (stereo not drawn) [Compound I-88] | 0.86 nM | <0.1% | 0.15 L/h/kg |
| COc1ccc(S(=O)(=O)N(CC(C)C)CC(O)C(Cc2ccc(Oc3ccc(C)c(-c4sc5c(c4C(=O)O)CC(C)(C)CC5)c3)cc2)NC(=O)OC2COC3(C)OCCC23)cc1 (stereo not drawn) [Compound I-134] | 2.04 nM | <0.1% | 0.235 L/h/kg |
| COc1ccc(S(=O)(=O)N(CC(C)C)CC(O)C(Cc2ccc(OCc3ccccc3-c3ccc(Oc4ccc(-c5c(O)c6ccc(Cl)cc6[nH]c5=O)cc4)cc3)cc2)NC(=O)OC2COC3OCCC23)cc1 (stereo not drawn) [Compound I-847] | 3.38 nM | <0.1% | 0.36 L/h/kg |
| COc1ccc(S(=O)(=O)N(CC(C)C)C[C@@H](O)[C@H](Cc2ccc(NCc3ccccc3C(=O)Nc3sc4c(c3C(=O)O)CC(C)(C)CC4)cc2)NC(=O)O[C@H]2CO[C@@]3(C)OCC[C@@H]23)cc1 [Compound I-396] | 2.76 nM | <0.1% | 0.00343 L/h/kg |
| COc1ccc(S(=O)(=O)N(CC(C)C)CC(O)C(Cc2ccc(N(C)CCc3ccccc3-c3sc4c(c3C(=O)O)CC(C)(C)CC4)cc2)NC(=O)OC2COC3(C)OCCC23)cc1 (stereo not drawn) [Compound I-261] | 3.55 nM | <0.1% | 0.167 L/h/kg |
| COc1ccc(S(=O)(=O)N(CC(C)C)C[C@@H](O)[C@H](Cc2ccc(OCc3ccccc3-c3sc4c(c3C(=O)O)CC(C)(C)CC4)cc2)NC(=O)O[C@H]2CO[C@@]3(C)OCC[C@@H]23)cc1 [Compound I-1] | 1.29 nM | <0.1% | 0.0325 L/h/kg |
| COc1ccc(S(=O)(=O)N(CC(C)C)CC(O)C(Cc2ccc(N(C)C3Cc4cccc(-c5sc6c(c5C(=O)O)CC(C)(C)CC6)c4C3)cc2)NC(=O)OC2COC3(C)OCCC23)cc1 (stereo not drawn) [Compound I-405] | 2.42 nM | <0.1% | 0.196 L/h/kg |
| COc1ccc(S(=O)(=O)N(CC(C)C)CC(O)C(Cc2ccc(Oc3ccc(-c4sc5c(c4C(=O)O)CC(C)(C)CC5)c(F)c3)cc2)NC(=O)OC2COC3OCCC23)cc1 (stereo not drawn) [Compound I-836] | 1.76 nM | <0.1% | 0.259 L/h/kg |
| COc1ccc(S(=O)(=O)N(CC(C)C)CC(O)C(Cc2ccc(CCc3sc4c(c3C(=O)O)CC(C)(C)CC4(C)C)cc2)NC(=O)OC2COC3(C)OCCC23)cc1 (stereo not drawn) [Compound I-105] | 2.42 nM | <0.1% | 0.137 L/h/kg |
| CC(C)CN(CC(O)C(Cc1ccc(OCc2ccccc2-c2sc3c(c2C(=O)O)CC(C)(C)CC3)cc1)NC(=O)OC1COC2(C)OCCC12)S(=O)(=O)c1ccc2c(c1)OCO2 (stereo not drawn) [Compound I-132] | 2.66 nM | <0.1% | 0.0226 L/h/kg |
| COc1ccc(S(=O)(=O)N(CC(C)C)C[C@@H](O)[C@H](Cc2ccc(OCc3ccccc3-c3sc4c(c3C(=O)O)CC(C)(C)CC4)cc2)NC(=O)O[C@H]2CCO[C@H]3OCC[C@H]32)cc1 [Compound I-908] | 1.21 nM | <0.1% | 0.0378 L/h/kg |
| COc1ccc(S(=O)(=O)N(CC(C)C)CC(O)C(Cc2ccc(NCc3cc(F)ccc3-c3sc4c(c3C(=O)O)CC(C)(C)CC4)cc2)NC(=O)OC2COC3(C)OCCC23)cc1 (stereo not drawn) [Compound I-271] | 2.23 nM | <0.1% | 0.145 L/h/kg |
| COc1ccc(S(=O)(=O)N(CC2CCC(=O)N2)CC(O)C(Cc2ccc(OCc3ccccc3-c3sc4c(c3C(=O)O)CC(C)(C)CC4)cc2)NC(=O)OC2COC3(C)OCCC23)cc1 (stereo not drawn) [Compound I-148] | 1.16 nM | <0.1% | 0.15 L/h/kg |
| COc1ccc(S(=O)(=O)N(CC(C)C)C[C@@H](O)[C@H](Cc2ccc(NC3CN(c4ccccc4-c4sc5c(c4C(=O)O)CC(C)(C)CC5)C3)cc2)NC(=O)O[C@H]2CO[C@@]3(C)OCC[C@@H]23)cc1 [Compound I-228] | 3.98 nM | <0.1% | 0.00864 L/h/kg |
| COc1ccc(S(=O)(=O)N(CC(C)C)CC(O)C(Cc2ccc(N(Cc3ccccc3)Cc3sc4c(c3C(=O)O)CC(C)(C)CC4)cc2)NC(=O)OC2COC3(C)OCCC23)cc1 (stereo not drawn) [Compound I-47] | 5.41 nM | <0.1% | 0.211 L/h/kg |
| COc1ccc(S(=O)(=O)N(CC(C)C)CC(O)C(Cc2ccccc2)NC(=O)OC2COC3(COC(=O)NCc4sc5c(c4C(=O)O)CC(C)(C)CC5)OCCC23)cc1 (stereo not drawn) [Compound I-780] | 1.64 nM | <0.1% | 0.134 L/h/kg |
| COc1ccc(S(=O)(=O)N(CC(C)C)CC(O)C(Cc2ccc(N(C)CC3CCCCC3c3sc4c(c3C(=O)O)CC(C)(C)CC4)cc2)NC(=O)OC2COC3(C)OCCC23)cc1 (stereo not drawn) [Compound I-374] | 4.35 nM | <0.1% | 0.236 L/h/kg |
| COc1ccc(S(=O)(=O)N(CC(C)C)CC(O)C(Cc2ccc(NC3CCN(c4ccccc4-c4sc5c(c4C(=O)O)CC(C)(C)CC5)C3)cc2)NC(=O)OC2COC3(C)OCCC23)cc1 (stereo not drawn) [Compound I-238] | 2.52 nM | <0.1% | 0.183 L/h/kg |
| CC(C)CN(CC(O)C(Cc1ccccc1)NC(=O)OC1COC2(C)OCCC12)S(=O)(=O)c1ccc2nc(NCc3ccc(-c4sc5c(c4C(=O)O)CC(C)(C)CC5)cc3)sc2c1 (stereo not drawn) [Compound I-798] | 0.99 nM | <0.1% | 0.272 L/h/kg |
| COc1ccc(S(=O)(=O)N(CC2CCCC2)CC(O)C(Cc2ccc(OCc3nc(C)sc3-c3sc4c(c3C(=O)O)CC(C)(C)CC4)cc2)NC(=O)OC2COC3(C)OCCC23)cc1 (stereo not drawn) [Compound I-248] | 2.26 nM | <0.1% | 0.148 L/h/kg |

Source: patent US20170253607A1, “LONG-ACTING HIV PROTEASE INHIBITOR” (Shionogi & Co., Ltd., priority 2014, published 2017)
